These results are taken from ChEMBL document CHEMBL1201862, “PubChem BioAssay data set” (2004).

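Briefly, cells in 96-well plates were exposed to five compound concentrations for 48 h, and endpoints were estimated by linear interpolation. Here, GI50 denotes the concentration required for 50% inhibition of growth.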 Calls of active or inactive are those of the source. Rule as the data show it: active = GI50 up to about 1.1 µM and inactive = higher.

Test systems include CCRF-CEM; DU-145; HCC 2998; HCT-116; HOP-62; LOX IMVI; Malme-3M; NCI-H23; NCI-H460; NCI/ADR-RES; OVCAR-3; OVCAR-4; OVCAR-5; RXF 393; SNB-75; TK-10; UACC-257; UACC-62; UO-31.
Holding throughout (assay): NCI-60 cell line screen, 48 h

With `Cc1cccc(NC(=S)Nc2cccc(Cl)c2)n1`, the GI50 was > 100 µM (inactive) in the assay on CCRF-CEM; > 100 µM (inactive) in the assay with DU-145; > 100 µM (inactive) with HCC 2998; > 100 µM (inactive) with HCT-116; 39.4 µM (inactive) in the assay with HOP-62; > 100 µM (inactive) in the assay with LOX IMVI. In addition, the GI50 in the assay on Malme-3M is > 100 µM (inactive); with NCI-H23 it was > 100 µM (inactive); in the assay on NCI-H460, > 100 µM (inactive); in the assay with NCI/ADR-RES, > 96.4 µM (inactive); in the assay on OVCAR-3, > 100 µM (inactive); with OVCAR-4, > 100 µM (inactive). Besides, the GI50 in the assay with OVCAR-5 was > 100 µM (inactive); in the assay with RXF 393 it was 29.7 µM (inactive); in the assay on SNB-75, > 54 µM (inactive); in the assay on TK-10, > 100 µM (inactive); with UACC-257, > 100 µM (inactive); with UACC-62, > 75.2 µM (inactive). In addition, the GI50 in the assay on UO-31 was > 100 µM (inactive).
On to `CSC(=O)c1sc(SC)[n+](-c2ccccc2)c1O`, for which the GI50 was 8.28 µM (inactive) in the assay on CCRF-CEM; 16 µM (inactive) in the assay with DU-145; 19.6 µM (inactive) in the assay on HCC 2998; 16.8 µM (inactive) in the assay with HCT-116; 17 µM (inactive) in the assay with HOP-62; 12.6 µM (inactive) in the assay with LOX IMVI. In addition, the GI50 in the assay with Malme-3M was 21.6 µM (inactive); with NCI-H23, 17.7 µM (inactive); in the assay on NCI-H460, 27.9 µM (inactive); with NCI/ADR-RES, 30.3 µM (inactive); in the assay on OVCAR-3, 13.2 µM (inactive); with OVCAR-4 it was 12.1 µM (inactive). Also, the GI50 in the assay with OVCAR-5 was 18.7 µM (inactive); in the assay with RXF 393, 14.5 µM (inactive); with SNB-75 it was 13.1 µM (inactive); in the assay on TK-10 it was 18.2 µM (inactive); with UACC-62, 15.6 µM (inactive); in the assay with UO-31 it was 17.3 µM (inactive).
`Cc1ccc(N2C=Nn3c(nc4sc5c(c4c3=O)CCCC5)C2)cc1`: the GI50 in the assay on CCRF-CEM is 45.2 µM (inactive); in the assay with DU-145, 69.3 µM (inactive); in the assay with HCC 2998, 39.9 µM (inactive); with HCT-116, 41.2 µM (inactive); with HOP-62, 21.2 µM (inactive); in the assay on LOX IMVI, 47.4 µM (inactive). For the same molecule, the GI50 was 49.4 µM (inactive) in the assay with Malme-3M; 41.7 µM (inactive) in the assay on NCI-H23; 50.1 µM (inactive) in the assay with NCI-H460; 70.3 µM (inactive) in the assay on NCI/ADR-RES; 49.4 µM (inactive) in the assay on OVCAR-3; 37.8 µM (inactive) in the assay on OVCAR-4. In addition, the GI50 is 62.5 µM (inactive) with OVCAR-5; 24.8 µM (inactive) in the assay with RXF 393; 52 µM (inactive) with SNB-75; 86.1 µM (inactive) with TK-10; 54.8 µM (inactive) in the assay with UACC-257; > 100 µM (inactive) with UACC-62. Moreover, in the assay on UO-31, the GI50 is > 100 µM (inactive).
On to `Cc1ccc2nc(N/N=C/c3cccc(C)n3)cc(C)c2c1`, for which the GI50 is 17.3 µM (inactive) with DU-145; 12.6 µM (inactive) in the assay on HCC 2998; 14.7 µM (inactive) in the assay with HCT-116; 16 µM (inactive) in the assay with HOP-62; 15.1 µM (inactive) in the assay on LOX IMVI; 16 µM (inactive) with Malme-3M. In addition, the GI50 in the assay on NCI-H23 is 18.8 µM (inactive); in the assay on NCI-H460, 6.89 µM (inactive); with NCI/ADR-RES, 16.2 µM (inactive); with OVCAR-3, 14 µM (inactive); in the assay on OVCAR-4, 16.6 µM (inactive); with OVCAR-5 it was 14.3 µM (inactive). The GI50 in the assay with RXF 393 was 16.5 µM (inactive); in the assay on SNB-75, 19.7 µM (inactive); in the assay on TK-10 it was 14.7 µM (inactive); in the assay with UACC-257, 16.9 µM (inactive); in the assay with UACC-62 it was 15.2 µM (inactive); with UO-31, 19.7 µM (inactive).
Take `CSCCCNC(=O)c1csc([C@@H](CSC)NC(=O)CCNC(=O)[C@@H](NC(=O)OCC(Br)(Br)Br)C(C)O)n1` (stereo not given in full): the GI50 in the assay with CCRF-CEM, with DU-145, with HCC 2998, with HCT-116, in the assay on HOP-62 and with LOX IMVI was > 100 µM (inactive) throughout. The GI50 with Malme-3M, in the assay with NCI-H23, in the assay with NCI-H460, in the assay with NCI/ADR-RES, in the assay on OVCAR-3 and in the assay with OVCAR-4 was > 100 µM (inactive) in each case. Besides, the GI50 in the assay with OVCAR-5, in the assay on RXF 393, in the assay with SNB-75, in the assay with TK-10, in the assay on UACC-257 and with UACC-62 was > 100 µM (inactive) throughout. Moreover, in the assay with UO-31, the GI50 was > 100 µM (inactive).
Turning to `NC(=S)N/N=C1\CCCC1C(O)(C(F)(F)Cl)C(F)(F)Cl` (stereo not given), the GI50 with CCRF-CEM, with DU-145, in the assay on HCC 2998, with HCT-116, in the assay with HOP-62 and in the assay with LOX IMVI was > 10 µM (inactive) throughout. The GI50 in the assay with Malme-3M, in the assay with NCI-H23, in the assay with NCI-H460, with NCI/ADR-RES, in the assay on OVCAR-3 and with OVCAR-4 was > 10 µM (inactive) in each case. Further, the GI50 in the assay with OVCAR-5 is > 10 µM (inactive); in the assay with RXF 393, > 10 µM (inactive); in the assay with SNB-75, > 10 µM (inactive); in the assay on TK-10 it was > 10 µM (inactive); in the assay on UACC-257, > 10 µM (inactive); in the assay with UACC-62 it was 8.63 µM (inactive).
Regarding `O=P(Oc1ccccc1)(Oc1ccccc1)Oc1c[nH]c2ccccc12`, the GI50 in the assay with CCRF-CEM is 0.141 µM (active); with DU-145, 36.6 µM (inactive); in the assay on HCC 2998, 1.95 µM (inactive); in the assay on HCT-116, 15.2 µM (inactive); in the assay on HOP-62, 14.9 µM (inactive); in the assay with LOX IMVI, 14.6 µM (inactive). Besides, the GI50 was 16.2 µM (inactive) in the assay on Malme-3M; 10.1 µM (inactive) with NCI-H23; 12.8 µM (inactive) in the assay on NCI-H460; 3.45 µM (inactive) in the assay with NCI/ADR-RES; 14.5 µM (inactive) in the assay on OVCAR-3; 3.13 µM (inactive) with OVCAR-4. The GI50 in the assay with OVCAR-5 was 0.0449 µM (active); with RXF 393 it was 13.7 µM (inactive); with SNB-75 it was 10.8 µM (inactive); in the assay on TK-10, 12.1 µM (inactive); in the assay on UACC-257, 8.55 µM (inactive); in the assay on UACC-62, 8.97 µM (inactive). The GI50 in the assay with UO-31 is 5.33 µM (inactive).
For `CCCCCCCCCCCCCCCCCCOP1(=O)OCCO1`, the GI50 was 54 µM (inactive) with CCRF-CEM; > 100 µM (inactive) in the assay on DU-145; 47.2 µM (inactive) with HCC 2998; 49.5 µM (inactive) with HCT-116; 79.1 µM (inactive) with HOP-62; 52.1 µM (inactive) in the assay on LOX IMVI. For the same molecule, the GI50 in the assay on Malme-3M was > 100 µM (inactive); in the assay on NCI-H23, > 100 µM (inactive); with NCI/ADR-RES it was > 100 µM (inactive); with OVCAR-3, > 100 µM (inactive); with OVCAR-4 it was > 100 µM (inactive); with OVCAR-5 it was 74 µM (inactive). For the same molecule, the GI50 in the assay with RXF 393 was 16.4 µM (inactive); with SNB-75, > 100 µM (inactive); in the assay on TK-10, 30.4 µM (inactive); with UACC-257, > 100 µM (inactive); in the assay on UACC-62, > 100 µM (inactive); with UO-31, > 100 µM (inactive).
On to `CNC(=S)N/N=C(\C)c1ccc(OC)cc1O`, for which the GI50 is 0.865 µM (active) in the assay on CCRF-CEM; > 100 µM (inactive) in the assay on DU-145; > 100 µM (inactive) in the assay on HCC 2998; > 100 µM (inactive) with HCT-116; > 100 µM (inactive) in the assay with HOP-62; > 100 µM (inactive) in the assay on LOX IMVI. Further, the GI50 with Malme-3M was > 100 µM (inactive); in the assay on NCI-H23, > 100 µM (inactive); in the assay with NCI-H460 it was > 100 µM (inactive); in the assay with NCI/ADR-RES, 28.8 µM (inactive); with OVCAR-3, > 100 µM (inactive); with OVCAR-4, 28.1 µM (inactive). Further, the GI50 in the assay on OVCAR-5, in the assay on RXF 393, in the assay on SNB-75, with UACC-257, with UACC-62 and in the assay with UO-31 was > 100 µM (inactive) each time.
Turning to `C=CC(CCc1ccc(C(=O)OCC)cc1)c1c(N)nc(N)[nH]c1=O` (stereo not given), the GI50 with CCRF-CEM was 73.3 µM (inactive); with DU-145, > 100 µM (inactive); with HCC 2998, > 100 µM (inactive); with HCT-116, > 100 µM (inactive); in the assay with HOP-62 it was > 100 µM (inactive); with LOX IMVI, 45.3 µM (inactive). The GI50 in the assay with Malme-3M was 89.9 µM (inactive); with NCI-H23, 91.8 µM (inactive); in the assay with NCI-H460, > 100 µM (inactive); with NCI/ADR-RES it was > 100 µM (inactive); with OVCAR-3 it was 72.1 µM (inactive); in the assay on OVCAR-4, 27.2 µM (inactive). Further, the GI50 in the assay with RXF 393 is > 100 µM (inactive); in the assay on SNB-75, 47.8 µM (inactive); in the assay with TK-10, 60.3 µM (inactive); in the assay with UACC-257, 35.1 µM (inactive); in the assay on UACC-62, > 100 µM (inactive); in the assay with UO-31, 43.7 µM (inactive).
As to `CN1CC[C@]2(c3cccc(O)c3)CC(=O)/C(=C/c3ccc(Cl)c(Cl)c3)[C@@H]1C2`, the GI50 in the assay with CCRF-CEM is 0.337 µM (active); in the assay on DU-145, 1.65 µM (inactive); with HCC 2998, 1.41 µM (inactive); with HCT-116, 1.13 µM (inactive); in the assay on LOX IMVI, 0.175 µM (active); in the assay on Malme-3M it was 1.45 µM (inactive). In addition, the GI50 in the assay with NCI-H23 is 1.53 µM (inactive); in the assay on NCI-H460 it was 1.28 µM (inactive); with NCI/ADR-RES, 1.54 µM (inactive); with OVCAR-4, 1.47 µM (inactive); in the assay on OVCAR-5, 1.77 µM (inactive); with RXF 393 it was 0.427 µM (active). Further, the GI50 in the assay with SNB-75 was 0.455 µM (active); with TK-10, 1.86 µM (inactive); in the assay on UACC-257, 1.49 µM (inactive); with UO-31 it was 1.32 µM (inactive).
